For one data set, the target named is T1, rat liver FBPase (Rattus norvegicus, UniProt P19112).
T1 construct: made in house; host or cells: E. coli BL21 (transformed strain from Dr. M. R. El-Maghrabi, SUNY Stony Brook)
T1 sequence (P19112 2-363 limits assumed): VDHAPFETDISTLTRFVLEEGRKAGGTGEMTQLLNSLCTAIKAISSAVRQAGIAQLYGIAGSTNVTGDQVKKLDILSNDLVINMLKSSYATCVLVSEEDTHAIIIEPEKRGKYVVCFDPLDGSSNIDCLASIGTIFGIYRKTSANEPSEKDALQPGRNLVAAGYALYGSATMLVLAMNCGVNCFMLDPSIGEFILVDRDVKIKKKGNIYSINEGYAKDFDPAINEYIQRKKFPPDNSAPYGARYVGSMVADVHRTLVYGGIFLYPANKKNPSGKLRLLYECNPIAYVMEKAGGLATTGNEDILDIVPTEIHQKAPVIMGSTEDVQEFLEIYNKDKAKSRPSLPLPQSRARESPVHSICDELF
The data set is described as follows: In vitro Inhibition of Rat Liver FBPase. The data set is classed as biochemical. The conditions noted are these: assayed as for human liver FBPase. As to the method: (§1) E. coli strain BL21 transformed with a human liver FBPase-encoding plasmid was obtained from Dr. M. R. El-Maghrabi at the State University of New York at Stony Brook. hIFBPase was typically purified from 10 liters of E. coli culture as described (M. Gidh-Jain et al., The Journal of Biological Chemistry 1994, 269, 27732-27738). Enzymatic activity was measured spectrophotometrically in reactions that coupled the formation of product (fructose 6-phosphate) to the reduction of dimethylthiazoldiphenyltetrazolium bromide (MTT) via NADP and phenazine methosulfate (PMS), using phosphoglucose isomerase and glucose 6-phosphate dehydrogenase as the coupling enzymes. Reaction mixtures (200 μL) were made up in 96-well microtitre plates, and consisted of 50 mM Tris-HCl, pH 7.4, 100 mM KCl, 5 mM EGTA, 2 mM MgCl2, 0.2 mM NADP, 1 mg/mL BSA, 1 mM MTT, 0.6 mM PMS, 1 unit/mL phosphoglucose isomerase, 2 units/mL glucose 6-phosphate dehydrogenase, and 0.150 mM substrate (fructose 1,6-bisphosphate). Inhibitor concentrations were varied from 0.01 μM to 10 μM. Reactions were started by the addition of 0.002 units of pure hlFBPase and were monitored for 7 minutes at 590 nm in a Molecular Devices Plate Reader (37° C.).
(§2) E. coli strain BL21 transformed with a rat liver FBPase-encoding plasmid is obtained from Dr. M. R. El-Maghrabi at the State University of New York at Stony Brook, and purified as described (El-Maghrabi, M. R., and Pilkis, S. J. Biochem. Biophys. Res. Commun. 1991, 176, 137-144). Mouse liver FBPase is obtained by homogenizing freshly isolated mouse liver in 100 mM Tris-HCl buffer, pH 7.4, containing 1 mM EGTA, and 10% glycerol. The homogenate is clarified by centrifugation, and the 45-75% ammonium sulfate fraction prepared. This fraction is redissolved in the homogenization buffer and desalted on a PD-10 gel filtration column (Biorad) eluted with same. This partially purified fraction is used for enzyme assays. Both rat liver and mouse liver FBPase are assayed as described for human liver FBPase. Generally, as reflected by the higher IC50 values, the rat and mouse liver enzymes are less sensitive to inhibition by the compounds tested than the human liver enzyme.

Data set [1] deals with T2, human liver FBPase (hlFBPase) (Homo sapiens, UniProt P09467).
T2 construct: made in house; host or cells: E. coli BL21 (transformed strain from Dr. M. R. El-Maghrabi, SUNY Stony Brook)
T2 sequence (P09467 2-338 limits assumed): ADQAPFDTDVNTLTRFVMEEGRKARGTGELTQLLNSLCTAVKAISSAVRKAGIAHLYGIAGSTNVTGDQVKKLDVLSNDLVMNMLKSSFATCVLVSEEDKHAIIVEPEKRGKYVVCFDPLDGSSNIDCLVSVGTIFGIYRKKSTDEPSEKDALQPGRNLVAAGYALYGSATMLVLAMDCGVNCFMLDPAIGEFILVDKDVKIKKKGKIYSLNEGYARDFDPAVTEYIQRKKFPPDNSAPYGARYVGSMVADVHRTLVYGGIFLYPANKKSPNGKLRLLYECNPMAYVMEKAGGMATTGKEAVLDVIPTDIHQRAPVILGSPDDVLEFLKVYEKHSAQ
The data set is described as follows: Inhibition of Human Liver FBPase. The data set is classed as biochemical. On the procedure: as §1, with “Enzymatic” for “E. coli strain BL21 transformed with a human liver FBPase-encoding plasmid was obtained from Dr. M. R. El-Maghrabi at the State University of New York at Stony Brook. hIFBPase was typically purified from 10 liters of E. coli culture as described (M. Gidh-Jain et al., The Journal of Biological Chemistry 1994, 269, 27732-27738). Enzymatic”

For data set [2], the system named is glucose production from lactate/pyruvate in isolated rat hepatocytes. Kind of data set: Inhibition of Gluconeogenesis in Rat Hepatocytes. The data set is classed as cell-based. On the procedure: Hepatocytes were prepared from overnight fasted Sprague-Dawley rats (250-300 g) according to the procedure of Berry and Friend (Berry, M. N., Friend, D. S., J. Cell. Biol. 1969, 43, 506-520) as modified by Groen (Groen, A. K., Sips, H. J., Vervoorn, R. C., Tager, J. M., Eur. J. Biochem. 1982, 122, 87-93). Hepatocytes (75 mg wet weight/mL) were incubated in 1 mL Krebs-bicarbonate buffer containing 10 mM Lactate, 1 mM pyruvate, 1 mg/mL BSA, and test compound concentrations from 1 to 500 μM. Incubations were carried out in a 95% oxygen, 5% carbon dioxide atmosphere in closed, 50-mL Falcon tubes submerged in a rapidly shaking water bath (37° C.). After 1 hour, an aliquot (0.25 mL) was removed, transferred to an Eppendorf tube and centrifuged. 50 μL of supernatant was then assayed for glucose content using a Sigma Glucose Oxidase kit as per the manufacturer's instructions.

The next data set deals with T3, Mouse liver FBPase (Mus musculus, UniProt Q9QXD6).
T3 construct: Mouse liver FBPase is obtained by homogenizing freshly isolated mouse liver; from tissue; host or cells: freshly isolated mouse liver; 45-75% ammonium sulfate fraction, desalted
T3 sequence (Q9QXD6 2-338 limits assumed): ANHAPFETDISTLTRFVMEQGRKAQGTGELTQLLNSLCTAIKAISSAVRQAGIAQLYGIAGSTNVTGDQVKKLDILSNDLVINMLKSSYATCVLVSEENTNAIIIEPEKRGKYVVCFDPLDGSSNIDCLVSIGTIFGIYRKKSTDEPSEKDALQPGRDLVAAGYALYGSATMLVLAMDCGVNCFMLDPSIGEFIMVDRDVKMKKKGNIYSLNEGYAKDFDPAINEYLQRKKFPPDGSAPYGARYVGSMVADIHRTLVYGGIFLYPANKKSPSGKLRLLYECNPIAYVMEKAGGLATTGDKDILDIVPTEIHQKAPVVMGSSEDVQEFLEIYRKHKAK
The data set is described as follows: In vitro Inhibition of Mouse Liver FBPase. The data set is classed as biochemical. The conditions noted are these: partially purified mouse liver fraction, assayed as for human liver FBPase. On the procedure: as §1, §2

The mark [3] stands for this setting: 0.150 mM fructose 1,6-bisphosphate, pH 7.4, 37° C., read-out: HL FBPase IC50.
[4] abbreviates: Rattus norvegicus, Hepatocyte, 1 hour.

Read-outs that look alike come from different tables or passages of the source.

Usually inhibition stands for how much of the control response was suppressed. The low end stands for a response near the control, the high end for a response far below the control. Turning to `O=P(O)(O)c1ccc(-c2cc3ccccc3[nH]2)o1` [Compound 5.1, 2-(2-(5-phosphono)furanyl)indole], the IC50 was over 20 µM on rat liver FBPase, 8.8 µM in data set [1] (setting [3]) and over 20 µM against Mouse liver FBPase. Further, 500 µM produced 39.6% inhibition in data set [2] (setting [4]).

On to `Cc1cccn2c(CC(C)C)c(-c3ccc(P(=O)(O)O)o3)nc12` [Compound 14.4, 9-Aza-3-isobutyl-7-methyl-2-(2-(5-phosphono)furanyl)indole], for which the IC50 on rat liver FBPase is over 25 µM; in data set [1] (setting [3]), 1.6 µM; on Mouse liver FBPase, over 30 µM.

As to `O=C(NCP(=O)(O)O)c1cn2ccccc2n1` [Compound 12.1, 9-aza-2-phosphonomethylaminocarbonylindole], in data set [1] (setting [3]), the IC50 came to 90 µM.

`O=P(O)(O)c1ccc(-c2cn3cc(Cl)ccc3n2)o1` [Compound 14.2, 9-Aza-5-chloro-2-(2-(5-phosphono)furanyl)indole]: the IC50 in data set [1] (setting [3]) was found to be 4.5 µM.

With `Nc1cccn2c(-c3ccccc3)c(COCP(=O)(O)O)nc12` [Compound 11.5, 7-amino-9aza-3-phenyl-2-phosphonomethoxymethyl-indole], the IC50 against rat liver FBPase is 90 µM; in data set [1] (setting [3]), 10 µM. The compound further gave an inhibition at 250 µM in data set [2] (Rattus norvegicus, Hepatocyte, 250 μM, 1 hour) of 50%.

`Nc1cccc2c(CCc3ccccc3)c(C(=O)NCP(=O)(O)O)[nH]c12` [Compound 3.1, 7-amino-3-(2-phenethyl)-2-(phosphonomethylaminocarbonyl)indole] gave an inhibition at 500 µM in data set [2] (setting [4]) of 41.5%.

Take `CC(C)Cn1c(-c2ccc(P(=O)(O)O)o2)cc2ccccc21` [Compound 6.1, 1-isobutyl-2-(2-(5-phosphono)furanyl)indole]: the results for the IC50 (against rat liver FBPase; in data set [1] (setting [3]); against Mouse liver FBPase) were over 20 µM, 10.7 µM and over 20 µM, respectively. The “dose dependent inhibition of glucose production in rat hepatocytes (FIG. 3)” value in data set [2] is given as “inhibit glucose production in a dose dependent manner”. This compound also gave an inhibition at 500 µM in data set [2] (setting [4]) of 64.4%.

Take `CC(C)Cn1c(-c2ccc(P(=O)(O)O)o2)cc2c(N)cccc21` [Compound 9.1, N^1-isobutyl-4-amino-2-(2-(5-phosphone)furanyl)indole]: the IC50 in data set [1] (setting [3]) turned out to be 32.5 µM. For the same compound, in data set [2], the “dose dependent inhibition of glucose production in rat hepatocytes (FIG. 3)” value was “inhibit glucose production in a dose dependent manner”. This compound also displayed an inhibition at 500 µM in data set [2] (setting [4]) of 57%.

Regarding `Nc1cccc2cc(C(=O)NCP(=O)(O)O)[nH]c12` [Compound 1.1, 7-Amino-2-(phosphonomethylaminocarbonyl)indole], the IC50 in data set [1] (setting [3]) amounted to 10 µM. In addition, the “dose-dependent inhibition of hlFBPase (FIG. 2)” value in data set [1] is given as “dose-dependent inhibition”.

For `O=P(O)(O)COCc1nc2ccccn2c1-c1ccccc1` [Compound 11.3, 9-aza-3-phenyl-2-phosphono-methoxymethylindole], the IC50 in data set [1] (setting [3]) was determined as 10 µM.

As to `O=P(O)(O)c1ccc(-c2[nH]c3ccccc3c2-c2ccccc2)o1` [Compound 7.2, 3-phenyl-2-(2-(5-phosphono)furanyl)indole], the figures for the IC50 (on rat liver FBPase; in data set [1] (setting [3]); at Mouse liver FBPase) were over 20 µM, 8.5 µM and over 20 µM, respectively.

As for `CC(C)Cc1c(-c2ccc(P(=O)(O)O)o2)[nH]c2ccc(Cl)cc12` [Compound 10.1, 5-chloro-3-isobutyl-2-(2-(5-phosphono)furanyl)indole], the IC50 in data set [1] (setting [3]) was 2.5 µM.

Consider `COc1ccc2[nH]c(C(=O)NCP(=O)(O)O)cc2c1` [Compound 1.3, Disodium 5-methoxy-2-(phosphonomethylaminocarbonyl)indole], for which, in data set [1] (setting [3]), the IC50 was 60.6 µM. Also, in data set [2] (setting [4]), the inhibition at 500 µM is 3.4%.

Turning to `O=P(O)(O)c1ccc(-c2[nH]c3ccccc3c2Br)o1` [Compound 7.1, 2-(2-(5-phosphono)furanyl)-3-bromoindole], the IC50 against rat liver FBPase was over 20 µM; in data set [1] (setting [3]) it was 8.67 µM; against Mouse liver FBPase, over 20 µM. In addition, in data set [2] (setting [4]), testing at 500 µM gave an inhibition of 45.4%.

Consider `Nc1cccc2c(-c3ccccc3)c(C(=O)NCP(=O)(O)O)[nH]c12` [Compound 2.1, 7-amino-3-phenyl-2-(phosphonomethylaminocarbonyl)indole], for which the “dose-dependent inhibition of hlFBPase (FIG. 2)” value in data set [1] is “dose-dependent inhibition”.

Take `Nc1ncnc2c1ncn2[C@@H]1O[C@H](COP(=O)(O)O)[C@@H](O)[C@H]1O` [adenosine monophosphate (AMP), adenosine monophosphate, reference compound]: the IC50 in data set [1] (under the reaction conditions of Example A, read-out: concentration required to inhibit half of the hlFBPase activity) stood at 1 µM.
